In patent publication US20260248783A1 (ASCLETIS BIOSCIENCE CO., LTD., priority 2021, published 2026) one finds IC50 data, which are given here for 19 compounds.

Usually IC50 stands for the midpoint of a concentration-inhibition curve. A lower IC50 goes with greater potency in that assay.

T1 sequence (Q9NZQ7 19-238): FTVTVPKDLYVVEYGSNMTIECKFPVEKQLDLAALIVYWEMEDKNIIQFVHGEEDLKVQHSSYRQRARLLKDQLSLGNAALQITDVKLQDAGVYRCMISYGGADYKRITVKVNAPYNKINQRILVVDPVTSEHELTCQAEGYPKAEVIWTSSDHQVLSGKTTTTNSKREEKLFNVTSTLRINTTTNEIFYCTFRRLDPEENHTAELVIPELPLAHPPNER

This test has as its target T1, PD-1/PD-L1 (Homo sapiens, UniProt Q9NZQ7).
T1 construct: Recombinant human PD-L1 protein (19-238) with a Histag at the C-terminus; purchased AcroBiosystems PD1-H5229 (PD-L1); PD1-H5257 (PD-1)
The experiment in a line: PD-1/PD-L1 Homogeneous Time-Resolved Fluorescence (HTRF) Binding Assay. The note with it: PD-1/PD-L1 HTRF activity; 3 nM PD1, 10 nM PD-L1, 25° C. As to the method: Example 107. PD-1/PD-L1 Homogeneous Time-Resolved Fluorescence (HTRF) Binding Assay
The assays were conducted in a standard black 384-well polystyrene plate with a final volume of 20 μL. Inhibitors were first serially diluted in DMSO and then added to the plate wells before the addition of other reaction components. The final concentration of DMSO in the assay was 1%. The assays were carried out at 25° C. in the PBS buffer (pH 7.4) with 0.05% Tween-20 and 0.1% BSA. Recombinant human PD-L1 protein (19-238) with a Histag at the C-terminus was purchased from AcroBiosystems (PD1-H5229). Recombinant human PD-1 protein (25-167) with Fe tag at the C-terminus was also purchased from AcroBiosystems (PD1-H5257). PD-L1 and PD-1 proteins were diluted in the assay buffer and 10 μL was added to the plate well. Plates were centrifuged and proteins were preincubated with inhibitors for 40 minutes. The incubation was followed by the addition of 10 μL of HTRF detection buffer supplemented with Europium cryptate-labeled anti-human IgG (PerkinElmer-AD0212) specific for Fe and anti-His antibody conjugated to SureLight®—Allophycocyanin (APC, PerkinElmer-AD0059H). After centrifugation, the plate was incubated at 25° C. for 60 min. before reading on a PHERAstar FS plate reader (665 nm/620 nm ratio). Final concentrations in the assay were […], 10 nM PD-L1, 1 nM europium anti-human IgG and 20 nM anti-His-Allophycocyanin. IC50 determination was performed by fitting the curve of percent control activity versus the log of the inhibitor concentration.
Background: Time-resolved FRET reads energy transfer from a long-lived donor to a nearby acceptor.
For `Cn1c(CNCCO)cn2cc(-c3cccc(-c4cccc(-c5cc6c(=O)n(C)c(CNCCO)cn6c5)c4Cl)c3Cl)cc2c1=O` [Compound 45, 7,7′-(2,2′-dichloro-[1,1′-biphenyl]-3,3′-diyl)bis(3-(((2-hydroxyethyl)amino)methyl)-2-methylpyrrolo[1,2-a]pyrazin-1(2H)-one)], the half-maximal inhibitory concentration (IC50) is under 10 nM.

On to `Cn1c(CN2CC[C@H](O)C2)cn2cc(-c3cccc(-c4cccc(-c5cc6c(=O)n(C)c(CN7CC[C@H](O)C7)cn6c5)c4Cl)c3Cl)cc2c1=O` [Compound 46, 7,7′-(2,2′-dichloro-[1,1′-biphenyl]-3,3′-diyl)bis(3-(((S)-3-hydroxypyrrolidin-1-yl)methyl)-2-methylpyrrolo[1,2-a]pyrazin-1(2H)-one)], for which the 50% inhibitory concentration (IC50) lay in the range of 10 to 100 nM.

In the case of `Cc1cn2cc(-c3cccc(-c4cccc(-c5cc6c(=O)n(CCN7CC[C@H](O)C7)c(C)cn6c5)c4Cl)c3Cl)cc2c(=O)n1CCN1CC[C@H](O)C1` [Compound 48, 7,7′-(2,2′-dichloro-[1,1′-biphenyl]-3,3′-diyl)bis(2-(2-((S)-3-hydroxypyrrolidin-1-yl)ethyl)-3-methylpyrrolo[1,2-a]pyrazin-1(2H)-one)], the IC50 was in the range of 10 to 100 nM.

`Cc1cn2cc(-c3cccc(-c4cccc(-c5cc6c(=O)n(CCN7C[C@@H](O)C[C@H]7C(=O)O)c(C)cn6c5)c4Cl)c3Cl)cc2c(=O)n1CCN1C[C@@H](O)C[C@H]1C(=O)O` [Compound 50, (2S,2'S,4S,4'S)-1,1′-(((2,2′-dichloro-[1,1′-biphenyl]-3,3′-diyl)bis(3-methyl-1-oxopyrrolo[1,2-a]pyrazine-7,2(1H)-diyl))bis(ethane-2,1-diyl))bis(4-hydroxypyrrolidine-2-carboxylic acid)] gave an IC50 of 10 to 100 nM.

For the compound `CC(=O)NCCNCCn1c(C)cn2cc(-c3cccc(-c4cccc(-c5cc6c(=O)n(CCNCCNC(C)=O)c(C)cn6c5)c4Cl)c3Cl)cc2c1=O` [Compound 54, N,N′-(((((2,2′-dichloro-[1,1′-biphenyl]-3,3′-diyl)bis(3-methyl-1-oxopyrrolo[1,2-a]pyrazine-7,2(1H)-diyl))bis(ethane-2,1-diyl))bis(azanediyl))bis(ethane-2,1-diyl))diacetamide], the IC50 was under 10 nM.

In turn, `Cc1cn2cc(-c3cccc(-c4cccc(-c5cc6c(=O)n(CCNCC7CCCN7)c(C)cn6c5)c4Cl)c3Cl)cc2c(=O)n1CCNCC1CCCN1` (stereo not shown) [Compound 55, 7,7′-(2,2′-dichloro-[1,1′-biphenyl]-3,3′-diyl)bis(3-methyl-2-(2-((pyrrolidin-2-ylmethyl)amino)ethyl)pyrrolo[1,2-a]pyrazin-1(2H)-one)] returned an IC50 of at least 100 nM.

Consider `Cc1cn2cc(-c3cccc(-c4cccc(-c5cc6c(=O)n(CCNCC(O)CC(=O)O)c(C)cn6c5)c4Cl)c3Cl)cc2c(=O)n1CCNCC(O)CC(=O)O` (stereo not shown) [Compound 56, 4,4′-((((2,2′-dichloro-[1,1′-biphenyl]-3,3′-diyl)bis(3-methyl-1-oxopyrrolo[1,2-a]pyrazine-7,2(1H)-diyl))bis(ethane-2,1-diyl))bis(azanediyl))bis(3-hydroxybutanoic acid)], for which the IC50 is at least 100 nM.

Turning to `Cc1cn2cc(-c3cccc(-c4cccc(-c5cc6c(=O)n(CCN[C@@H](CCO)C(=O)O)c(C)cn6c5)c4Cl)c3Cl)cc2c(=O)n1CCN[C@@H](CCO)C(=O)O` [Compound 58, (2S,2'S)-2,2′-((((2,2′-dichloro-[1,1′-biphenyl]-3,3′-diyl)bis(3-methyl-1-oxopyrrolo[1,2-a]pyrazine-7,2(1H)-diyl))bis(ethane-2,1-diyl))bis(azanediyl))bis(4-hydroxybutanoic acid)], the IC50 fell in the range of 10 to 100 nM.

`Cc1cn2nc(-c3cccc(-c4cccc(-c5cc6c(=O)n(CCN[C@H](C(=O)O)[C@@H](C)O)c(C)cn6n5)c4Cl)c3Cl)cc2c(=O)n1CCN[C@H](C(=O)O)[C@@H](C)O` [Compound 60, (2S,2'S,3R,3′R)-2,2′-((((2,2′-dichloro-[1,1′-biphenyl]-3,3′-diyl)bis(6-methyl-4-oxopyrazolo[1,5-a]pyrazine-2,5(4H)-diyl))bis(ethane-2,1-diyl))bis(azanediyl)) bis(3-hydroxybutanoic acid)] gave an IC50 of 10 to 100 nM.

Take `Cc1cn2nc(-c3cccc(-c4cccc(-c5cc6c(=O)n(CCN[C@H](CO)C(=O)O)c(C)cn6n5)c4Cl)c3Cl)cc2c(=O)n1CCN[C@H](CO)C(=O)O` [Compound 61, (2R,2′R)-2,2′-((((2,2′-dichloro-[1,1′-biphenyl]-3,3′-diyl)bis(6-methyl-4-oxopyrazolo[1,5-a]pyrazine-2,5(4H)-diyl))bis(ethane-2,1-diyl))bis(azanediyl))bis(3-hydroxypropanoic acid)]: the IC50 was in the range of 10 to 100 nM.

`Cc1cn2nc(-c3cccc(-c4cccc(-c5cc6c(=O)n(CCN[C@@H](CCO)C(=O)O)c(C)cn6n5)c4Cl)c3Cl)cc2c(=O)n1CCN[C@@H](CCO)C(=O)O` [Compound 62, (2S,2'S)-2,2′-((((2,2′-dichloro-[1,1′-biphenyl]-3,3′-diyl)bis(6-methyl-4-oxopyrazolo[1,5-a]pyrazine-2,5(4H)-diyl))bis(ethane-2,1-diyl))bis(azanediyl))bis(4-hydroxybutanoic acid)]: the IC50 lay within 10 to 100 nM.

`Cc1nn2cc(-c3cccc(-c4cccc(-c5cc6c(=O)n(CCN[C@@H](CO)C(=O)O)c(C)nn6c5)c4Cl)c3Cl)cc2c(=O)n1CCN[C@@H](CO)C(=O)O` [Compound 64, (2S,2'S)-2,2′-((((2,2′-dichloro-[1,1′-biphenyl]-3,3′-diyl)bis(2-methyl-4-oxopyrrolo[2,1-f][1,2,4]triazine-6,3(4H)-diyl))bis(ethane-2,1-diyl))bis(azanediyl))bis(3-hydroxypropanoic acid)] came in with an IC50 of 10 to 100 nM.

Regarding `CCc1nn2cc(-c3cccc(-c4cccc(-c5cc6c(=O)n(CCN[C@@H](CO)C(=O)O)c(CC)nn6c5)c4Cl)c3Cl)cc2c(=O)n1CCN[C@@H](CO)C(=O)O` [Compound 65, (2S,2'S)-2,2′-((((2,2′-dichloro-[1,1′-biphenyl]-3,3′-diyl)bis(2-ethyl-4-oxopyrrolo[2,1-f][1,2,4]triazine-6,3(4H)-diyl))bis(ethane-2,1-diyl))bis(azanediyl))bis(3-hydroxypropanoic acid)], the IC50 fell in the range of 10 to 100 nM.

With `CC(=O)NC[C@H](NCCn1c(C)cn2nc(-c3cccc(-c4cccc(-c5cc6c(=O)n(CCN[C@@H](CNC(C)=O)C(=O)O)c(C)cn6n5)c4Cl)c3Cl)cc2c1=O)C(=O)O` [Compound 68, (2S,2'S)-2,2′-((((2,2′-dichloro-[1,1′-biphenyl]-3,3′-diyl)bis(6-methyl-4-oxopyrazolo[1,5-a]pyrazine-2,5(4H)-diyl))bis(ethane-2,1-diyl))bis(azanediyl))bis(3-acetamidopropanoic acid)], the IC50 was 10 to 100 nM.

`Cc1cn2nc(-c3cccc(-c4cccc(-c5cc6c(=O)n(CCN[C@@H](CN(C)C)C(=O)O)c(C)cn6n5)c4Cl)c3Cl)cc2c(=O)n1CCN[C@@H](CN(C)C)C(=O)O` [Compound 69, (2S,2'S)-2,2′-((((2,2′-dichloro-[1,1′-biphenyl]-3,3′-diyl)bis(6-methyl-4-oxopyrazolo[1,5-a]pyrazine-2,5(4H)-diyl))bis(ethane-2,1-diyl))bis(azanediyl))bis(3-(dimethylamino)propanoic acid)]: the IC50 was at least 100 nM.

For `Cc1cn2nc(-c3cccc(-c4cccc(-c5cc6c(=O)n(CCCN[C@@H](CO)C(=O)O)c(C)cn6n5)c4Cl)c3Cl)cc2c(=O)n1CCCN[C@@H](CO)C(=O)O` [Compound 70, (2S,2'S)-2,2′-((((2,2′-dichloro-[1,1′-biphenyl]-3,3′-diyl)bis(6-methyl-4-oxopyrazolo[1,5-a]pyrazine-2,5(4H)-diyl))bis(propane-3,1-diyl))bis(azanediyl))bis(3-hydroxypropanoic acid)], the IC50 lay in the range of 10 to 100 nM.

In turn, `Cn1c(CCN[C@@H](CO)C(=O)O)cn2nc(-c3cccc(-c4cccc(-c5cc6c(=O)n(C)c(CCN[C@@H](CO)C(=O)O)cn6n5)c4Cl)c3Cl)cc2c1=O` [Compound 71, (2S,2'S)-2,2′-((((2,2′-dichloro-[1,1′-biphenyl]-3,3′-diyl)bis(5-methyl-4-oxo-4,5-dihydropyrazolo[1,5-a]pyrazine-2,6-diyl))bis(ethane-2,1-diyl))bis(azanediyl))bis(3-hydroxypropanoic acid)] came in with an IC50 of under 10 nM.

Turning to `CC(=O)NCCNCc1cn2cc(-c3cccc(-c4cccc(-c5cc6c(=O)[nH]c(CNCCNC(C)=O)cn6c5)c4Cl)c3Cl)cc2c(=O)[nH]1` [Compound 72, N,N′-(((((2,2′-dichloro-[1,1′-biphenyl]-3,3′-diyl)bis(1-oxo-1,2-dihydropyrrolo[1,2-a]pyrazine-7,3-diyl))bis(methylene))bis(azanediyl))bis(ethane-2,1-diyl))diacetamide], the IC50 lay within 10 to 100 nM.

Regarding `CC(=O)NCCNCc1cn2cc(-c3cccc(-c4cccc(-c5cc6c(=O)n(C[C@@H]7CCC(=O)N7)c(CNCCNC(C)=O)cn6c5)c4Cl)c3Cl)cc2c(=O)n1C[C@@H]1CCC(=O)N1` [Compound 73, N,N′-(((((2,2′-dichloro-[1,1′-biphenyl]-3,3′-diyl)bis(1-oxo-2-(((S)-5-oxopyrrolidin-2-yl)methyl)-1,2-dihydropyrrolo[1,2-a]pyrazine-7,3-diyl))bis(methylene))bis(azanediyl))bis(ethane-2,1-diyl))diacetamide], the IC50 is 10 to 100 nM.
